Test results reported in ChEMBL document CHEMBL5143617 (Eur J Med Chem, 2022).
The source made the active and inactive calls. The calls are words filed in the database; no cut-off is given here.

Tests used:
[1] = target: 5-hydroxytryptamine receptor 7 (Homo sapiens, UniProt P34969); test: Displacement of [3H]-5-CT from human 5-HT7 receptor expressed in CHO-K1 cells membrane by scintillation counter analysis; assay type: cell membranes
[2] = target: T1, 5-hydroxytryptamine receptor 1A (Homo sapiens, UniProt P08908); test: Displacement of [3H]-[…] from human 5-HT1A receptor expressed in CHO-K1 cells membrane by scintillation counter analysis; assay type: cell membranes
T1 sequence (P08908 whole entry): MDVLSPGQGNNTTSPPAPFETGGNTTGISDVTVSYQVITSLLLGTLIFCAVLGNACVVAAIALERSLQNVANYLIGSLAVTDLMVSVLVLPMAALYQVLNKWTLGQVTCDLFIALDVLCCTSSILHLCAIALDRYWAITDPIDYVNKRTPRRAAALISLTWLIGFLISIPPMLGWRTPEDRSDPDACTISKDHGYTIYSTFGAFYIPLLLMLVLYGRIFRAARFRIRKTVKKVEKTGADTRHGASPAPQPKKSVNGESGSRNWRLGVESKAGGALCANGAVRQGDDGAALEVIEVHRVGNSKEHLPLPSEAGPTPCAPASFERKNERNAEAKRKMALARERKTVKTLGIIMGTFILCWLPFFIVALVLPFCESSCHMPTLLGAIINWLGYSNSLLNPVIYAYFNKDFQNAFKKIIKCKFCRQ

[3] = target: T2, cAMP and cAMP-inhibited cGMP 3',5'-cyclic phosphodiesterase 10A (Homo sapiens, UniProt Q9Y233); test: Inhibition of PDE10A (unknown origin) at 10 uM preincubated for 20 mins followed by substrate addition and measured after 1 hr by PEDlight AMP detection reagent based luminescence assay relative to control; details: time 80.0 min
[4] = system: Mus musculus; test: Anxiolytic-like activity in Swiss albino mouse at 2.5 mg/kg, ip by four plate test; assay type: functional, organism-based
[5] = target: T2, cAMP and cAMP-inhibited cGMP 3',5'-cyclic phosphodiesterase 10A; test: Inhibition of PDE10A (unknown origin) preincubated for 20 mins followed by substrate addition and measured after 1 hr by PEDlight AMP detection reagent based luminescence assay
[6] = Permeability of the compound across apical to basolateral side in human Caco-2 cells at pH 6.5; assay type: ADME, cell-based; details: Caco-2, pH 6.5, read-out: permeability
[7] = Permeability of the compound across apical to basolateral side in human Caco-2 cells at pH 7.4; assay type: ADME, cell-based; details: Caco-2, pH 7.4, read-out: permeability
[8] = Tmax in mouse frontal cortex at 1.25 mg/kg, ip by LC/ESI-MS/MS analysis; assay type: ADME, organism-based
[9] = Metabolic stability in human liver microsomes assessed as intrinsic clearance
[10] = AUC(0 to t) in mouse striatum at 1.25 mg/kg, ip by LC/ESI-MS/MS analysis; assay type: ADME, organism-based; design: dose 1.25 mg/kg, route ip
[11] = Cmax in mouse frontal cortex at 1.25 mg/kg, ip by LC/ESI-MS/MS analysis; assay type: ADME, organism-based; design: dose 1.25 mg/kg, route ip
[12] = AUC(0 to t) in mouse plasma at 1.25 mg/kg, ip measured up to 480 mins by LC/ESI-MS/MS analysis; assay type: ADME, organism-based; design: dose 1.25 mg/kg, time < 480 min, route ip; details: in vivo, 8 h
[13] = Cmax in mouse striatum at 1.25 mg/kg, ip by LC/ESI-MS/MS analysis; assay type: ADME, organism-based; design: dose 1.25 mg/kg, route ip
[14] = Tmax in mouse striatum at 1.25 mg/kg, ip by LC/ESI-MS/MS analysis; assay type: ADME, organism-based
[15] = target: T3, Adrenergic receptor alpha-1 (Homo sapiens, UniProt P35348+P25100+P35368); test: Binding affinity to adrenergic alpha 1 receptor (unknown origin); assay type: protein assay
T3 sequence (P35348 whole entry): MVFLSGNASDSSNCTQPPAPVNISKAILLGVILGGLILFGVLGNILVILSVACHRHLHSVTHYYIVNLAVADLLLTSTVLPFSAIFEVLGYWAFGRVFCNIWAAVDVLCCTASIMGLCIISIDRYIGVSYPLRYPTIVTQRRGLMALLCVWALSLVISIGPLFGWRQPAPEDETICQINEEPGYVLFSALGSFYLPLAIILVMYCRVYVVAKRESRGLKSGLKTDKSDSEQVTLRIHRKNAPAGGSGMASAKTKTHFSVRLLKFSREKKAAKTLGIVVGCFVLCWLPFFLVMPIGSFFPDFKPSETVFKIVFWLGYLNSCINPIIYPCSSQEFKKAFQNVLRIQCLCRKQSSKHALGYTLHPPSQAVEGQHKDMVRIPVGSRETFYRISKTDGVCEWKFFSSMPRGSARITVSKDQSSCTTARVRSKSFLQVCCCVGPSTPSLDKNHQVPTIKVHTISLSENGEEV
T3 sequence (P25100 whole entry): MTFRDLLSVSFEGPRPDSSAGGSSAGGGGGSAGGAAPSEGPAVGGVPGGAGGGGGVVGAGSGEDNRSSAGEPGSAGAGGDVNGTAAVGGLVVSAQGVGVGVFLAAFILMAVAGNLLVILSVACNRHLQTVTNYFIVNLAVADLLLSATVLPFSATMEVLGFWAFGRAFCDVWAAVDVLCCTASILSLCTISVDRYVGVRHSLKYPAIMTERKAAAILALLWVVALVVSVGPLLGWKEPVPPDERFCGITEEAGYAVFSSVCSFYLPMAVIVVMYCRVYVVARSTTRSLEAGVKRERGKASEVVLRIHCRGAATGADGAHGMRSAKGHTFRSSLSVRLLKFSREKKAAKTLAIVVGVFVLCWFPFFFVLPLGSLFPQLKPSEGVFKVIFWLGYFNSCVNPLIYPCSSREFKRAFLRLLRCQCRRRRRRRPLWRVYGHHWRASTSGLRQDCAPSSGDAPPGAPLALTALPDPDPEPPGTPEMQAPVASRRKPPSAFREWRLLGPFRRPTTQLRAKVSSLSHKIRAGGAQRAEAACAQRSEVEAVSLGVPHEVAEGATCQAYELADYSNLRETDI
T3 sequence (P35368 whole entry): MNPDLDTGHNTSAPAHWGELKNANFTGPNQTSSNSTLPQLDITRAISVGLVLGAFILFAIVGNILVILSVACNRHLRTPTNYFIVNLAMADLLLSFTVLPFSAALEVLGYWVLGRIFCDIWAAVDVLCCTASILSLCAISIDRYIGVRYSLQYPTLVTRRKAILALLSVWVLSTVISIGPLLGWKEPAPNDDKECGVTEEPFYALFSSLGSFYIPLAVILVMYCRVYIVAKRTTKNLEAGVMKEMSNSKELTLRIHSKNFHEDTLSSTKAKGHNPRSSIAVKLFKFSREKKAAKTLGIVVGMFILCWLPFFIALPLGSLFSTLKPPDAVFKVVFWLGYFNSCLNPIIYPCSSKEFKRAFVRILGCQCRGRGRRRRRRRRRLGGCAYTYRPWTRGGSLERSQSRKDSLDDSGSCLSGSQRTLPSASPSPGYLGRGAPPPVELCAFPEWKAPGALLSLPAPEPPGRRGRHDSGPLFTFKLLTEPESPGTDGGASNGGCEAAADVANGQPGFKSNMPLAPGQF

[16] = Tmax in mouse hippocampus at 1.25 mg/kg, ip by LC/ESI-MS/MS analysis; assay type: ADME, organism-based
[17] = AUC(0 to t) in mouse frontal cortex at 1.25 mg/kg, ip by LC/ESI-MS/MS analysis; assay type: ADME, organism-based; design: dose 1.25 mg/kg, route ip
[18] = Cmax in mouse hippocampus at 1.25 mg/kg, ip by LC/ESI-MS/MS analysis; assay type: ADME, organism-based; design: dose 1.25 mg/kg, route ip
[19] = target: D(2) dopamine receptor (Homo sapiens, UniProt P14416); test: Binding affinity to dopamine D2 receptor (unknown origin)
[20] = Apparent volume of distribution in mouse plasma at 1.25 mg/kg, ip measured up to 480 mins by LC/ESI-MS/MS analysis; assay type: ADME, organism-based
[21] = target: 5-hydroxytryptamine receptor 2A (Homo sapiens, UniProt P28223); test: Binding affinity to 5HT-2A receptor (unknown origin)
[22] = Cmax in mouse plasma at 1.25 mg/kg, ip measured up to 480 mins by LC/ESI-MS/MS analysis; assay type: ADME, organism-based; design: time < 480 min, dose 1.25 mg/kg, route ip
[23] = Tmax in mouse plasma at 1.25 mg/kg, ip measured up to 480 mins by LC/ESI-MS/MS analysis; assay type: ADME, organism-based
[24] = AUC(0 to t) in mouse hippocampus at 1.25 mg/kg, ip by LC/ESI-MS/MS analysis; assay type: ADME, organism-based; design: dose 1.25 mg/kg, route ip
[25] = system: Rattus norvegicus; test: Pro-cognitive activity in MK-801-induced memory impaired Wistar rat assessed as recognition of novel location by measuring discrimination index at 0.3 to 3 mg/kg, ip preincubated for 30 mins followed by MK-801 addition for 30 mins prior to T1 phase by novel object location test; assay type: functional, organism-based; details: dose 0.3-3 mg/kg, time 60.0 min
[26] = system: Mus musculus; test: Anxiolytic-like activity in Swiss albino mouse at 1.25 to 2.5 mg/kg, ip by four plate test; assay type: functional, organism-based; details: dose 1.25-2.5 mg/kg
[27] = system: Mus musculus; test: Antidepressant activity in Swiss albino mouse assessed as reduction in immobility time at 2.5 mg/kg, ip measured for last 4 mins of 6 mins test by forced swim test; assay type: functional; design: scale not given: the % may be the effect or the level left; details: 0.1 h

SMILES | Ki [1] [nM] | Ki [2] [nM] | inhibition [3] [%] | IC50 [5] [µM] | other results
COc1cc2ncnc(N3CCC(CN4CCN(c5cccc(Cl)c5)CC4)C3)c2cc1OC (stereo unspecified) | 372 | 30.2 | 4 | – | –
COc1cc2ncnc(N3CCC(CN4CCN(c5cccc(C(F)(F)F)c5)CC4)C3)c2cc1OC (stereo unspecified) | 229 | 20.9 | 3 | – | Activity [4]: Active
c1cc(N2CCN(c3cccc4cn[nH]c34)CC2)c2ncncc2c1 | > 1000 | > 1000 | 3 | – | –
COc1cc2ncnc(N3CCC(CN4CCN(c5ccccc5O)CC4)C3)c2cc1OC (stereo unspecified) | 661 | – | – | 6.03 | –
COc1cc2ncnc(N3CCC(CN4CCN(c5ccc(Cl)c(Cl)c5)CC4)C3)c2cc1OC (stereo unspecified) | 355 | 245 | 2 | – | –
O=c1[nH]c2cccc(N3CCN(Cc4nc5ccccc5[nH]4)CC3)c2[nH]1 | > 1000 | > 1000 | 23 | 4.07 | –
CNC(=C[N+](=O)[O-])NCCSCc1ccc(CN(C)C)o1 [RANITIDINE] | – | – | – | – | Papp A→B [6]: 0.3 ×10⁻⁶ cm/s; Papp A→B [7]: 0.9 ×10⁻⁶ cm/s
COc1cc2ncnc(N3CCC(CN4CCN(c5cccc(Cl)c5Cl)CC4)C3)c2cc1OC (stereo unspecified) | 347 | 10.7 | 6 | – | –
COc1cccc(N2CCN(CC3CCN(c4ncnc5cc(OC)c(OC)cc45)C3)CC2)c1 (stereo unspecified) | 234 | – | – | 7.08 | Tmax [8]: 15 min; microsomal CLint [9]: 292 µL/min/mg; AUC(0-t) [10]: 438 ng·h/mL; Cmax [11]: 210 ng/mL; AUCt [12]: 1164 ng·min/mL; Cmax [13]: 303 ng/mL; Tmax [14]: 30 min; pKi [15]: 6.58; Tmax [16]: 30 min; AUC(0-t) [17]: 726 ng·h/mL; Cmax [18]: 436 ng/mL; Ki [19]: > 1000 nM; Vd/F [20]: 0.253 L/kg; Ki [21]: > 1000 nM; Cmax [22]: 13.3 ng/mL; Tmax [23]: 5 min; AUC(0-t) [24]: 906 ng·h/mL
COc1cc2ncnc(N3CCC(CN4CCN(c5ncccn5)CC4)C3)c2cc1OC (stereo unspecified) | > 1000 | 251 | 11 | – | –
COc1cc2ncnc(N3CC[C@@H](Oc4cnc5ccccc5n4)C3)c2cc1OC | – | – | – | – | Activity [25]: Active; Activity [26]: Active; Activity [27]: 30%
COc1cc2ncnc(N3CCC(CN4CCc5ccccc5C4)C3)c2cc1OC (stereo unspecified) | 603 | > 1000 | 40 | 105 | –
COc1cc2ncnc(N3CCC(CN4CCN(c5ccc(O)cc5)CC4)C3)c2cc1OC (stereo unspecified) | > 1000 | 468 | 18 | – | –
